Data from patent publication US8163771B2, “11 β-HSD1 modulators” (Exelixis, Inc., priority 2008, dated 2012).

Biological target: T1, recombinant human 11 β-HSD1 (Homo sapiens, UniProt P28845)
T1 construct: made in house; host or cells: E. coli
Test: 11 β-HSD1 SPA Assay (Scintillation Proximity Assay)
Format: biochemical
Outline: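 E. coli-expressed human enzyme (30-100 nM) with tritiated cortisone 40 nM and NADPH 1 mM in HEPES buffer pH7.4, 2 hours at room temperature. Stopped with protein A SPA beads carrying anti-cortisol antibody and glycyrrhetinic acid; counted after overnight incubation. IC50 from percent inhibition between no-enzyme and no-compound signals.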

T1 sequence (P28845 whole entry): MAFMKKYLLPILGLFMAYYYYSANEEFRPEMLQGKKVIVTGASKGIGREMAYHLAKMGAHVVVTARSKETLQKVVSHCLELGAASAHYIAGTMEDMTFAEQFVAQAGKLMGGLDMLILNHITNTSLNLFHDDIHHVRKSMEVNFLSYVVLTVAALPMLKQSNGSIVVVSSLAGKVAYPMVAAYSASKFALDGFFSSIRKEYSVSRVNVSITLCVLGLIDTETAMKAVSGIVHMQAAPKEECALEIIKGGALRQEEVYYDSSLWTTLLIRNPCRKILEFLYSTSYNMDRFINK

SMILES	IC50 [nM]
CC(C)NC(=O)c1ccc(N2[C@@H]3CC[C@H]2C[C@@H](NC(=O)C(C)(C)Oc2ccc(Cl)cc2C(F)(F)F)C3)nc1 [Example 370, 6-[3-endo-({2-[4-chloro-2-(trifluoromethyl)phenoxy]-2-methylpropanoyl}amino)-8-azabicyclo[3.2.1]oct-8-yl]-N-(propan-2-yl)pyridine-3-carboxamide]	< 200
CC(C)(Oc1ccc(F)cc1Cl)C(=O)N[C@H]1C[C@H]2CC[C@@H](C1)N2c1ccc(C(=O)NCC(F)F)cn1 [Example 371, 6-(3-endo-{[2-(2-chloro-4-fluorophenoxy)-2-methylpropanoyl]amino}-8-azabicyclo[3.2.1]oct-8-yl)-N-(2,2-difluoroethyl)pyridine-3-carboxamide]	< 200
CC(C)(Oc1ccc(F)cc1C(F)(F)F)C(=O)N[C@H]1C[C@H]2CC[C@@H](C1)N2c1ccc(C(=O)NCC(F)F)cn1 [Example 372, N-(2,2-difluoroethyl)-6-[3-endo-({2-[4-fluoro-2-(trifluoromethyl)phenoxy]-2-methylpropanoyl}amino)-8-azabicyclo[3.2.1]oct-8-yl]pyridine-3-carboxamide]	< 200
C[C@@H](NC(=O)c1ccc(N2C3CCC2CC(NC(=O)C(C)(C)Oc2ccc(Cl)cc2Cl)C3)nc1)C(F)(F)F (stereo partly drawn) [Example 373, 6-(3-endo-{[2-(2,4-dichlorophenoxy)-2-methylpropanoyl]amino}-8-azabicyclo[3.2.1]oct-8-yl)-N-[(2R)-1,1,1-trifluoropropan-2-yl]pyridine-3-carboxamide]	< 200
C[C@H](NC(=O)c1ccc(N2C3CCC2CC(NC(=O)C(C)(C)Oc2ccc(Cl)cc2Cl)C3)nc1)C(F)(F)F (stereo partly drawn) [Example 374, 6-(3-endo-{[2-(2,4-dichlorophenoxy)-2-methylpropanoyl]amino}-8-azabicyclo[3.2.1]oct-8-yl)-N-[(2S)-1,1,1-trifluoropropan-2-yl]pyridine-3-carboxamide]	< 200
CC(C)(Oc1ccc(Cl)cc1C(=O)O)C(=O)N[C@H]1C[C@H]2CC[C@@H](C1)N2c1ccc(C(=O)NCC(F)(F)F)cn1 [Example 375, 5-chloro-2-({2-methyl-1-oxo-1-[(8-{5-[(2,2,2-trifluoroethyl)carbamoyl]pyridin-2-yl}-8-azabicyclo[3.2.1]oct-3-endo-yl)amino]propan-2-yl}oxy)benzoic acid]	< 200
CC(C)(Oc1ccc(Cl)cc1CO)C(=O)N[C@H]1C[C@H]2CC[C@@H](C1)N2c1ccc(C(=O)NCC(F)(F)F)cn1 [Example 376, 6-[3-endo-({2-[4-chloro-2-(hydroxymethyl)phenoxy]-2-methylpropanoyl}amino)-8-azabicyclo[3.2.1]oct-8-yl]-N-(2,2,2-trifluoroethyl)pyridine-3-carboxamide]	< 200
CCN(CC)CCNC(=O)c1ccc(N2[C@@H]3CC[C@H]2C[C@@H](NC(=O)C(C)(C)Oc2ccc(Cl)cc2Cl)C3)nc1 [Example 377, 6-(3-endo-{[2-(2,4-dichlorophenoxy)-2-methylpropanoyl]amino}-8-azabicyclo[3.2.1]oct-8-yl)-N-[2-(diethylamino)ethyl]pyridine-3-carboxamide]	< 200
CC(C)(Oc1ccc(Cl)cc1Cl)C(=O)N[C@H]1C[C@H]2CC[C@@H](C1)N2c1ccc(C(=O)NC2CCOCC2)cn1 [Example 378, 6-(3-endo-{[2-(2,4-dichlorophenoxy)-2-methylpropanoyl]amino}-8-azabicyclo[3.2.1]oct-8-yl)-N-(tetrahydro-2h-pyran-4-yl)pyridine-3-carboxamide]	< 200
CC(C)(Oc1ccc(Cl)cc1Cl)C(=O)N[C@H]1C[C@H]2CC[C@@H](C1)N2c1ccc(C(=O)NC2CCS(=O)(=O)CC2)cn1 [Example 379, 6-(3-endo-{[2-(2,4-dichlorophenoxy)-2-methylpropanoyl]amino}-8-azabicyclo[3.2.1]oct-8-yl)-N-(1,1-dioxidotetrahydro-2h-thiopyran-4-yl)pyridine-3-carboxamide]	< 200
CC(C)(Oc1ccc(Cl)cc1Cl)C(=O)N[C@H]1C[C@H]2CC[C@@H](C1)N2c1ccc(C(=O)NC2CCSCC2)cn1 [Example 380, 6-(3-endo-{[2-(2,4-dichlorophenoxy)-2-methylpropanoyl]amino}-8-azabicyclo[3.2.1]oct-8-yl)-N-(tetrahydro-2H-thiopyran-4-yl)pyridine-3-carboxamide]	< 200
CC(C)(Oc1cc(C(C)(C)O)c(Cl)cc1Cl)C(=O)NC1CC2CCC(C1)N2c1ccc(C(=O)NCC(O)C(F)(F)F)cn1 (stereo not drawn) [Example 381, 6-[3-endo-({2-[2,4-dichloro-5-(2-hydroxypropan-2-yl)phenoxy]-2-methylpropanoyl}amino)-8-azabicyclo[3.2.1]oct-8-yl]-N-(3,3,3-trifluoro-2-hydroxypropyl)pyridine-3-carboxamide]	< 200
COCCOc1cc(OC(C)(C)C(=O)N[C@H]2C[C@H]3CC[C@@H](C2)N3c2ccc(C(=O)NCC(F)(F)F)cn2)c(Cl)cc1Cl [Example 382, 6-[3-endo-({2-[2,4-dichloro-5-(2-methoxyethoxy)phenoxy]-2-methylpropanoyl}amino)-8-azabicyclo[3.2.1]oct-8-yl]-N-(2,2,2-trifluoroethyl)pyridine-3-carboxamide]	< 200
CC(C)(Oc1ccc(Cl)cc1CCO)C(=O)N[C@H]1C[C@H]2CC[C@@H](C1)N2c1ccc(C(=O)NCC(F)(F)F)cn1 [Example 383, 6-[3-endo-({2-[4-chloro-2-(2-hydroxyethyl)phenoxy]-2-methylpropanoyl}amino)-8-azabicyclo[3.2.1]oct-8-yl]-N-(2,2,2-trifluoroethyl)pyridine-3-carboxamide]	< 200
CC(C)(Oc1ccc(Cl)cc1Cl)C(=O)N[C@H]1C[C@H]2CC[C@@H](C1)N2c1ccc(C(=O)NC2(CO)CC2)cn1 [Example 384, 6-(3-endo-{[2-(2,4-dichlorophenoxy)-2-methylpropanoyl]amino}-8-azabicyclo[3.2.1]oct-8-yl)-N-[1-(hydroxymethyl)cyclopropyl] pyridine-3-carboxamide]	< 200
CC(C)(Oc1cccc2[nH]ncc12)C(=O)N[C@H]1C[C@H]2CC[C@@H](C1)N2c1ccc(C(=O)NCC(F)(F)F)cn1 [Example 385, 6-(3-endo-{[2-(1H-indazol-4-yloxy)-2-methylpropanoyl]amino}-8-azabicyclo[3.2.1]oct-8-yl)-N-(2,2,2-trifluoroethyl)pyridine-3-carboxamide]	< 200
CC(C)(Oc1ccc(Cl)cc1Cl)C(=O)N[C@H]1C[C@H]2CC[C@@H](C1)N2c1ccc(C(=O)Nc2ccon2)cn1 [Example 386, 6-(3-endo-{[2-(2,4-dichlorophenoxy)-2-methylpropanoyl]amino}-8-azabicyclo[3.2.1]oct-8-yl)-N-(isoxazol-3-yl)pyridine-3-carboxamide]	< 200
CC(C)(Oc1ccc(Cl)cc1OCCn1ccnc1)C(=O)N[C@H]1C[C@H]2CC[C@@H](C1)N2c1ccc(C(=O)NCC(F)(F)F)cn1 [Example 387, 6-{3-endo-[(2-{4-chloro-2-[2-(1H-imidazol-1-yl)ethoxy]phenoxy}-2-methylpropanoyl)amino]-8-azabicyclo[3.2.1]oct-8-yl}-N-(2,2,2-trifluoroethyl)pyridine-3-carboxamide]	< 2000
CC(C)(Oc1ccc(Cl)cc1S(N)(=O)=O)C(=O)N[C@H]1C[C@H]2CC[C@@H](C1)N2c1ccc(C(=O)NCC(F)(F)F)cn1 [Example 388, 6-(3-endo-{[2-(4-chloro-2-sulfamoylphenoxy)-2-methylpropanoyl]amino}-8-azabicyclo[3.2.1]oct-8-yl)-N-(2,2,2-trifluoroethyl)pyridine-3-carboxamide]	< 2000
CC(C)(Oc1ccc(Cl)cc1OCCO)C(=O)N[C@H]1C[C@H]2CC[C@@H](C1)N2c1ccc(C(=O)NCC(F)(F)F)cn1 [Example 389, 6-[3-endo-({2-[4-chloro-2-(2-hydroxyethoxy)phenoxy]-2-methylpropanoyl}amino)-8-azabicyclo[3.2.1]oct-8-yl]-N-(2,2,2-trifluoroethyl)pyridine-3-carboxamide]	< 200
CC(C)(Oc1cccc2cc[nH]c12)C(=O)N[C@H]1C[C@H]2CC[C@@H](C1)N2c1ccc(C(=O)NCC(F)(F)F)cn1 [Example 390, 6-(3-endo-{[2-(1H-indol-7-yloxy)-2-methylpropanoyl]amino}-8-azabicyclo[3.2.1]oct-8-yl)-N-(2,2,2-trifluoroethyl)pyridine-3-carboxamide]	< 200
CC(C)(Oc1ccc(C(C)(C)O)cc1Cl)C(=O)N[C@H]1C[C@H]2CC[C@@H](C1)N2c1ccc(C(=O)NCC(F)(F)F)cn1 [Example 391, 6-[3-endo-({2-[2-chloro-4-(2-hydroxypropan-2-yl)phenoxy]-2-methylpropanoyl}amino)-8-azabicyclo[3.2.1]oct-8-yl]-N-(2,2,2-trifluoroethyl)pyridine-3-carboxamide]	< 200
CC(C)(Oc1cc(OCCO)c(Cl)cc1Cl)C(=O)NC1CC2CCC(C1)N2c1ccc(C(=O)NC2CC2(F)F)cn1 (stereo not drawn) [Example 392, 6-[3-endo-({2-[2,4-dichloro-5-(2-hydroxyethoxy)phenoxy]-2-methylpropanoyl}amino)-8-azabicyclo[3.2.1]oct-8-yl]-N-(2,2-difluorocyclopropyl)pyridine-3-carboxamide]	< 200
CC(C)(Oc1ccc(Cl)cc1C(F)F)C(=O)NC1CC2CCC(C1)N2c1ccc(C(=O)NC2CC2(F)F)cn1 (stereo not drawn) [Example 393, 6-[3-endo-({2-[4-chloro-2-(difluoromethyl)phenoxy]-2-methylpropanoyl}amino)-8-azabicyclo[3.2.1]oct-8-yl]-N-(2,2-difluorocyclopropyl)pyridine-3-carboxamide]	< 200
CC(C)(Oc1ccc(Cl)cc1OC(F)(F)F)C(=O)NC1CC2CCC(C1)N2c1ccc(C(=O)NC2CC2(F)F)cn1 (stereo not drawn) [Example 394, 6-[3-endo-({2-[4-chloro-2-(trifluoromethoxy)phenoxy]-2-methylpropanoyl}amino)-8-azabicyclo[3.2.1]oct-8-yl]-N-(2,2-difluorocyclopropyl)pyridine-3-carboxamide]	< 200
